Measured values published in patent US20140057915A1, “KINASE INHIBITORS” (TOPIVERT PHARMA LIMITED, priority 2012, published 2014).

Assays:
GSK3α = GSK3α (Homo sapiens, UniProt P49840); test: GSK 3α enzyme inhibition (FRET), Method 1; assay type: biochemical; details: Table 4a1
Procedure: (§1) The enzyme inhibitory activities of compounds disclosed herein are determined by FRET using synthetic peptides labelled with both donor and acceptor fluorophores (Z-LYTE, Invitrogen Ltd., Paisley, UK).
The following two assay variants are used for determination of GSK 3a inhibition.
The inhibitory activities of compounds of the invention against the GSK 3a enzyme isoform (Invitrogen), are evaluated by determining the level of activation/phosphorylation of the target peptide. The GSK3-α protein (500 ng/mL, 2.5 μL) is mixed with the test compound (2.5 μL at either 4 μg/mL, 0.4 μg/mL, 0.04 μg/mL, or 0.004 μg/mL) for 2 hr at RT. The FRET peptide (8 μM, 2.5 μL), which is a phosphorylation target for GSK3α, and ATP (40 μM, 2.5 μL) are then added to the enzyme/compound mixture and the resulting mixture incubated for 1 hr. Development reagent (protease, 5 μL) is added for 1 hr prior to detection in a fluorescence microplate reader (Varioskan® Flash, ThermoFisher Scientific).
(§2) In all cases, the site-specific protease cleaves non-phosphorylated peptide only and eliminates the FRET signal. Phosphorylation levels of each reaction are calculated using the ratio of coumarin emission (donor) over fluorescein emission (acceptor), for which high ratios indicate high phosphorylation and low ratios indicate low phosphorylation levels.

[1] = test system: TNFα release, d-U937 cells; test: LPS-induced TNFα release in d-U937 cells; assay type: cell-based; details: Homo sapiens, dU937; relative to 10 μg/mL BIRB796; Table 4c1; read-out: LPS Induced Release of Cytokine in d-U937 Cells, TNFα REC50
Procedure: (§3) (a) LPS-Induced TNFα/IL-8 Release in d-U937Cells
U937 cells, a human monocytic cell line, are differentiated into macrophage-type cells by incubation with PMA (100 ng/mL) for 48 to 72 hr. Cells are pre-incubated with final concentrations of test compound for 2 hr and are then stimulated with LPS (0.1 μg/mL; from E. Coli: 0111:B4, Sigma) for 4 hr. The supernatant is collected for determination of TNFα and IL-8 concentrations by sandwich ELISA (Duo-set, R&D systems). […] The relative 50% effective concentration (REC50) is determined from the resultant concentration-response curve. The inhibition of IL-8 production is calculated at each concentration of test compound by comparison with vehicle control.

[2] = test system: IL-8 release, d-U937 cells; test: LPS-induced IL-8 release in d-U937 cells; assay type: cell-based; details: Homo sapiens, dU937; Table 4c1; read-out: LPS Induced Release of Cytokine in d-U937 Cells, IL-8 IC50
Procedure: as §3
U937 cells, a human monocytic cell line, are differentiated into macrophage-type cells by incubation with PMA (100 ng/mL) for 48 to 72 hr. Cells are pre-incubated with final concentrations of test compound for 2 hr and are then stimulated with LPS (0.1 μg/mL; from E. Coli: 0111:B4, Sigma) for 4 hr. […] The relative 50% effective concentration (REC50) is determined from the resultant concentration-response curve.

cSrc = cSrc (Homo sapiens, UniProt P12931); test: c-Src enzyme inhibition (FRET); assay type: biochemical; details: Table 4a1
Sequence of cSrc (P12931 whole entry): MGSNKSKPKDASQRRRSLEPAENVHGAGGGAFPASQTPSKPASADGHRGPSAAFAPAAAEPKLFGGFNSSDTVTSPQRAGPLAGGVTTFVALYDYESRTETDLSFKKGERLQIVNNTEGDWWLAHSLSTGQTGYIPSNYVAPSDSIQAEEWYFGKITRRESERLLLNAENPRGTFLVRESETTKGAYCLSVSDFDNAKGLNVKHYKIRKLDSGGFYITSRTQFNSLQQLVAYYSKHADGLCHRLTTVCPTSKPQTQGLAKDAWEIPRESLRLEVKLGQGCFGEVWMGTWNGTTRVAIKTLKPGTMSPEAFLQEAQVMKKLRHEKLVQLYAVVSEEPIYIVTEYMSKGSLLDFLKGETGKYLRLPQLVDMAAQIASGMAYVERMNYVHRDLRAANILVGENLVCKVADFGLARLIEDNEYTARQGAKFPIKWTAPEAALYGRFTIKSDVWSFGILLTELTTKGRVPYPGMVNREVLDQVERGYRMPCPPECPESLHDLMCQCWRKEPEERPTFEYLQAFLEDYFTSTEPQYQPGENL
Procedure: as §1
(§4) The relevant enzyme (3000 ng/mL or 2000 ng/mL respectively, 2.5 μL) is incubated with the test compound (either 4 μg/mL, 0.4 μg/mL, 0.04 μg/mL, or 0.004 μg/mL, 2.5 μL each) for 2 hr at RT. The FRET peptides (8 μM, 2.5 μL), and appropriate ATP solutions (2.5 μL, 800 μM for c-Src, and 60 μM ATP for Syk) are then added to the enzymes/compound mixtures and incubated for 1 hr. Development reagent (protease, 5 μL) is added for 1 hr prior to detection in a fluorescence microplate reader (Varioskan® Flash, ThermoFisher Scientific).
as §2

d-U937 cells = test: Cell viability: MTT assay; assay type: cell-based, human; details: 1 μg/mL
Procedure: (l) The Effect of Test Compounds on Cell Viability: MTT Assay
Differentiated U937 cells are pre-incubated with each test compound (final concentration 1 μg/mL or 10 μg/mL in 200 μL media indicated below) under two protocols: the first for 4 hr in 5% FCS RPMI1640 media and the second in 10% FCS RPMI1640 media for 24 h. The supernatant is replaced with new media (200 μL) and MTT stock solution (10 μL, 5 mg/mL) is added to each well. After incubation for 1 hr the media are removed, DMSO (200 μL) is added to each well and the plates are shaken lightly for 1 hr prior to reading the absorbance at 550 nm. The percentage loss of cell viability is calculated for each well relative to vehicle (0.5% DMSO) treatment. Consequently an apparent increase in cell viability for drug treatment relative to vehicle is tabulated as a negative percentage.

Syk = Syk (Homo sapiens, UniProt P43405); test: Syk enzyme inhibition (FRET); assay type: biochemical; details: Table 4a1
Procedure: as §1, §4, §2

[3] = test system: ICAM-1 expression, BEAS2B cells; test: Poly I:C-induced ICAM-1 expression in BEAS2B cells; assay type: cell-based; details: Homo sapiens, BEAS-2B; read-out: Poly IC induced ICAM1 in BEAS2B, IC50
Procedure: (f) Poly I:C-Induced ICAM-1 Expression in BEAS2B Cells
Poly I:C is used in these studies as a simple, RNA virus mimic. Poly I:C-Oligofectamine mixture (1 μg/mL Poly I:C, ±2% Oligofectamine, 25 μL; Invivogen Ltd., San Diego, Calif., and Invitrogen, Carlsbad, Calif., respectively) is transfected into BEAS2B cells (human bronchial epithelial cells, ATCC). Cells are pre-incubated with final concentrations of test compounds for 2 hr and the level of ICAM1 expression on the cell surface is determined by cell-based ELISA. At a time point 18 hr after poly I:C transfection, cells are fixed with 4% formaldehyde in PBS (100 μL) and then endogenous peroxidase is quenched by the addition of washing buffer (100 μL, 0.05% Tween in PBS: PBS-Tween) containing 0.1% sodium azide and 1% hydrogen peroxide. Cells are washed with wash-buffer (3×200 μL). and after blocking the wells with 5% milk in PBS-Tween (100 μL) for 1 hr, the cells are incubated with anti-human ICAM-1 antibody (50 μL; Cell Signalling Technology, Danvers, Mass.) in 1% BSA PBS overnight at 4° C.
The cells are washed with PBS-Tween (3×200 μL) and incubated with the secondary antibody (100 μL; HRP-conjugated anti-rabbit IgG, Dako Ltd., Glostrup, Denmark). […] The ICAM-1 signal is detected by reading the absorbance at 450 nm against a reference wavelength of 655 nm using a spectrophotometer. The cells are then washed with PBS-Tween (3×200 μL) and total cell numbers in each well are determined by reading absorbance at 595 nm after Crystal Violet staining (50 μL of a 2% solution in PBS) and elution by 1% SDS solution (100 μL) in distilled water. The measured OD 450-655 readings are corrected for cell number by dividing with the OD595 reading in each well. The inhibition of ICAM-1 expression is calculated at each concentration of test compound by comparison with vehicle control.

Sequence of GSK3α (P49840 whole entry): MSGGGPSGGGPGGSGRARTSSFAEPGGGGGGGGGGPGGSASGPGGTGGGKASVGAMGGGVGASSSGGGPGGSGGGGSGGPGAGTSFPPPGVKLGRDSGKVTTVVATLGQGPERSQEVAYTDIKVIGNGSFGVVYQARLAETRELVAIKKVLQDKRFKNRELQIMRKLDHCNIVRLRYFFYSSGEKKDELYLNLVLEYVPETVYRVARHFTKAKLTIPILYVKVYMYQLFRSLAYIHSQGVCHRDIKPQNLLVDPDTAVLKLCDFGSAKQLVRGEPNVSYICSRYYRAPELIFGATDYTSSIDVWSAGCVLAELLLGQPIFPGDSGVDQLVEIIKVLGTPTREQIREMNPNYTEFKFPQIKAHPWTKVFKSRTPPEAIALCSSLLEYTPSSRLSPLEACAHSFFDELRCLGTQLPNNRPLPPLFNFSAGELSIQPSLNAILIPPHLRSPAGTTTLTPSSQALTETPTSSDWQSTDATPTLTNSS

IC50 (GSK3α)	EC50 [1]	IC50 [2]	IC50 (cSrc)	IC50 (Syk)	SMILES	Cell viability at time point in d-U937 cells, 4 h (d-U937 cells)	Cell viability at time point in d-U937 cells, 24 h (d-U937 cells)	IC50 [3]
> 13000 nM	20.2 nM	60.6 nM	9 nM	54 nM	COc1ccc(-n2nc(C(C)C)cc2NC(=O)Nc2ccc(Oc3ccnc(Nc4ccc(C(=O)NCCN5CCOCC5)cc4OC)n3)c3ccccc23)cc1 [Example 38, 4-((4-((4-(3-(3-isopropyl-1-(4-methoxyphenyl)-1H-pyrazol-5-yl)ureido)naphthalen-1-yl)oxy)pyrimidin-2-yl)amino)-3-methoxy-N-(2-morpholinoethyl)benzamide]	−ve (−ve and +ve indicate that the value is below and above respectively, the no significant effect threshold, defined as 30% inhibition at 1 μg/mL at the time point indicated)	−ve (−ve and +ve indicate that the value is below and above respectively, the no significant effect threshold, defined as 30% inhibition at 1 μg/mL at the time point indicated)	35.7 nM
> 14600 nM	3.6 nM	15.7 nM	8 nM	130 nM	COc1cc(C(=O)NCCO)ccc1Nc1nccc(Oc2ccc(NC(=O)Nc3cc(C(C)C)nn3-c3ccc(C)cc3)c3ccccc23)n1 [Example 39, N-(2-hydroxyethyl)-4-((4-((4-(3-(3-isopropyl-1-(p-tolyl)-1H-pyrazol-5-yl)ureido)naphthalen-1-yl)oxy)pyrimidin-2-yl)amino)-3-methoxybenzamide]	−ve (−ve and +ve indicate that the value is below and above respectively, the no significant effect threshold, defined as 30% inhibition at 1 μg/mL at the time point indicated)	−ve (−ve and +ve indicate that the value is below and above respectively, the no significant effect threshold, defined as 30% inhibition at 1 μg/mL at the time point indicated)	146 nM
197 nM	0.2 nM	0.6 nM	2 nM	7 nM	COc1cc(Nc2nccc(Oc3ccc(NC(=O)Nc4cc(C(C)(C)C)nn4-c4ccc(C)cc4)c4ccccc34)n2)cc(C(=O)NCCN(C)C)c1 [Example 43, 3-((4-((4-(3-(3-(tert-butyl)-1-(p-tolyl)-1H-pyrazol-5-yl)ureido)naphthalen-1-yl)oxy)pyrimidin-2-yl)amino)-N-(2-(dimethylamino)ethyl)-5-methoxybenzamide]	−ve (−ve and +ve indicate that the value is below and above respectively, the no significant effect threshold, defined as 30% inhibition at 1 μg/mL at the time point indicated)	−ve (−ve and +ve indicate that the value is below and above respectively, the no significant effect threshold, defined as 30% inhibition at 1 μg/mL at the time point indicated)	0.4 nM

The remaining lines, values behind:

SMILES	IC50 (GSK3α)	EC50 [1]	IC50 [2]	IC50 (cSrc)	IC50 (Syk)	Cell viability at time point in d-U937 cells, 4 h (d-U937 cells)	Cell viability at time point in d-U937 cells, 24 h (d-U937 cells)	IC50 [3]
CCCNC(=O)c1cccc(Nc2nccc(Oc3ccc(NC(=O)Nc4cc(C(C)(C)C)nn4-c4ccc(OC)cc4)c4ccccc34)n2)c1 [Example 17, 3-(4-(4-(3-(3-tert-butyl-1-(4-methoxyphenyl)-1H-pyrazol-5-yl)ureido)naphthalen-1-yloxy)pyrimidin-2-ylamino)-N-propylbenzamide]	309 nM	1.5 nM	1.8 nM	3 nM	35 nM	−ve (−ve and +ve indicate that the value is below and above respectively, the no significant effect threshold, defined as 30% inhibition at 1 μg/mL at the time point indicated)	−ve (−ve and +ve indicate that the value is below and above respectively, the no significant effect threshold, defined as 30% inhibition at 1 μg/mL at the time point indicated)	2.6 nM
COc1cc(Nc2nccc(Oc3ccc(NC(=O)Nc4cc(C(C)C)nn4-c4ccc(C)cc4)c4ccccc34)n2)cc(C(=O)N2CCN(C)CC2)c1 [Example 69, 1-(3-isopropyl-1-(p-tolyl)-1H-pyrazol-5-yl)-3-(4-((2-((3-methoxy-5-(4-methylpiperazine-1-carbonyl)phenyl)amino)pyrimidin-4-yl)oxy)naphthalen-1-yl)urea]	282 nM	0.2 nM	0.3 nM	1 nM	8 nM	−ve (−ve and +ve indicate that the value is below and above respectively, the no significant effect threshold, defined as 30% inhibition at 1 μg/mL at the time point indicated)	−ve (−ve and +ve indicate that the value is below and above respectively, the no significant effect threshold, defined as 30% inhibition at 1 μg/mL at the time point indicated)	7.5 nM
COc1ccc(C(=O)NCCN(C)C)cc1Nc1nccc(Oc2ccc(NC(=O)Nc3cc(C(C)C)nn3-c3ccc(C)cc3)c3ccccc23)n1 [Example 28, N-(2-(dimethylamino)ethyl)-3-((4-((4-(3-(3-isopropyl-1-(p-tolyl)-1H-pyrazol-5-yl)ureido)naphthalen-1-yl)oxy)pyrimidin-2-yl)amino)-4-methoxybenzamide]	> 14000 nM	2.2 nM	32.4 nM	< 1 nM	54 nM	−ve (−ve and +ve indicate that the value is below and above respectively, the no significant effect threshold, defined as 30% inhibition at 1 μg/mL at the time point indicated)	−ve (−ve and +ve indicate that the value is below and above respectively, the no significant effect threshold, defined as 30% inhibition at 1 μg/mL at the time point indicated)	140 nM
